SMILES strings stand for the structures. Read-outs that look alike come from different tables or passages of the source.

This experiment deals with Thermoanaerobacterium saccharolyticum glucose isomerase (ATCC 49915), wild-type, SEQ ID NO.: 2 (Thermoanaerobacterium saccharolyticum, UniProt P30435). To be noted: pH 6.5, 20 mM sodium phosphate, 250 μM CoCl2, 5 mM MgCl2, 10 minutes.
Thermoanaerobacterium saccharolyticum glucose isomerase (ATCC 49915), wild-type, SEQ ID NO.: 2, sequence (P30435 whole entry R81A): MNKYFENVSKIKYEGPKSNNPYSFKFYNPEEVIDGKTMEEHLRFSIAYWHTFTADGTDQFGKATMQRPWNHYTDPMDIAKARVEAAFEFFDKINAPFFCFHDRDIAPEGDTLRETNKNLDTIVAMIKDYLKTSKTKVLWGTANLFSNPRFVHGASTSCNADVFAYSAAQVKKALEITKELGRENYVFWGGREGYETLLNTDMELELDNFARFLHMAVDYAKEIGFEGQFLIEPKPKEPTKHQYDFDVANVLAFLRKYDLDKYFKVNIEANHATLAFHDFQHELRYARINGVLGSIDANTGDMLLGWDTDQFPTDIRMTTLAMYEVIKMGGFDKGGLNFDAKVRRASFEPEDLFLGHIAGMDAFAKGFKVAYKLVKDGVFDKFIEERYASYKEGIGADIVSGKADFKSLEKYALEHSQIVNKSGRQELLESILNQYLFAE

Protocol: The isolation and purification of wild-type glucose isomerase were based on Lee et al., (Journal of General Microbiology, 139:1227-1234, 1993) with modifications. pGEMT-TS transformed E. coli HB101 cells were incubated on 1% MacConkey agar plate containing 1% xylose and 50 mg/L ampicillin at 37° C. for 36 hours. A single colony from the plate was inoculated and cultivated in 5 mL LB supplemented with 50 mg/L ampicillin for 16 hours. The bacterial cells were pelleted and resuspended in 1 ml 20 mM phosphate buffer (pH 6.5), and CoCl2 and MgCl2 were added to final concentration of 250 μM and 5 mM, respectively. The cells were disrupted by using ultrasonication and centrifuged at 17,800 g for 15 minutes at 10° C. to collect the supernatant as crude glucose isomerase. The crude enzyme was heated at 80° C. for 10 minutes and centrifuged again at 17,800 g for 15 minutes at 10° C. to remove the precipitation.
Ninety μl of the stock solution was mixed with 10 μl of the glucose isomerase prepared as described in Example 9, incubated at 80° C. for 10 minutes and quenched on ice immediately. The fructose formed was measured by the cysteine-carbazole method (Dische et al., J. Biol. Chem, 192:583-587, 1951; and Nakamura, Agr. Biol. Chem. 32:701-706, 1968). The protein concentration was determined using Coomassie® Plus Protein Assay Reagent Kit (Pierce, USA) and SDD-PAGE, with BSA as the standard.

`OC[C@H]1OC(O)[C@H](O)[C@@H](O)[C@@H]1O` (stereo partly drawn) [D-glucose]: where the note is “65° C.”, the Kcat amounted to 5.742 s⁻¹ and the Kcat/Km came out at 41.7 M⁻¹ s⁻¹. For the same compound, under “80° C.”, the Kcat worked out at 14.68 s⁻¹ and the Kcat/Km was found to be 98.3 M⁻¹ s⁻¹.

Source of the values: US7919300B2, “Glucose isomerase mutants” (priority 2004, dated 2011).
